{"source": "patent EP1388013B1", "about": "“COMPOSITIONS AND METHODS FOR THE USE OF FIBRONECTIN FRAGMENTS IN THE DIAGNOSIS OF CANCER” (THE REGENTS OF THE UNIVERSITY OF MICHIGAN, priority 2001, dated 2002)", "key": {"[1]": {"tested_on": "metastatic DU-145 prostate cancer cells", "assay": "SU-ECM invasion assay, DU-145 cells", "assay_type": "cell-based, human", "conditions": "PHSRN sequence of fibronectin alone; Example 4", "procedure": "(§1) Adult Strongylocentrotus purpuratus sea urchins were obtained from Pacific BioMarine, and their embryos were cultured to the early pluteus stage in artificial sea water at 15°C. SU-ECM were prepared from them by treatment with nonionic detergent and sterilized by dilution in the appropriate media.\n(§2) […] When appropriate, purified bovine plasma fibronectin (Sigma, St. Louis, Mo), purified 120 kDa chymotryptic fragment (Gibco BRL), PHSRN or PHSCN peptides (synthesized at the Biomedical Research Core Facilities of the University of Michigan), or GRGDSP or GRGESP peptides (Gibco BRL) were added to the resuspended cells prior to placement of the cells on SU-ECM. In each well of a plate used for an invasion assay, SU-ECM were placed in 0.5 ml of the appropriate medium, and 0.5ml of the resuspended cells dropped on their exterior surfaces. Invasion assays were incubated 1 to 16 hours prior to scoring. If some circumstances, invasion assays were fixed in phosphate-buffered saline (PBS) with 2% formaldehyde for 5 minutes at room temperature, then rinsed into PBS.\n(§3) Invasion assays were coded and scored blindly by microscopic examination under phase contrast at 200- and 400-fold magnification. Each cell contacting an SU-ECM was scored for its position relative to the exterior or interior surfaces. A cell was judged to have invaded if it was located on an interior surface below the focal plane passing through the upper surface of the SU-ECM, but above the focal plane passing through its lower surface. The minimum viability of the cells in each assay was always ascertained at the time of assay by determining the fraction of spread, adherent cells on the bottom of each well scored.\n(§4) An invasion frequency is defined as the fraction of cells in contact with basement membranes which were located in their interiors at the time of assay. Thus, an invasion frequency of 1 denotes invasion by 100% of the cells in contact with basement membranes. Invasion frequencies were determined multiple times for each cell type assayed. For each type of cell assayed the mean and standard deviation of the invasion frequencies were calculated.\nThe method of Example 4 is employed, with the addition of varying concentrations of the PHSCN peptide.\nThus, the procedure in Example 4 provides a method for determining the inhibitory potential of the PHSCN peptide by comparing the number of cell invasions in the presence of the PHSCN peptide, with the number of cell invasions in the absence of the PHSCN peptide.\nIn this example, in vitro invasion of cancer cells into substrates is inhibited with peptides that have been chemically modified with protecting groups and peptides having protecting groups as well as the modification wherein an L-amino acid has been replaced with the D-isomer. PHSCN peptide, blocked PHSCN peptide, and blocked PHSCN peptide with a D-cysteine instead of the L-isomer, were tested (Figure 4A, 4B).\nIn this example, in vitro invasion of cancer cells into substrates is inhibited with non-peptide mimetics in comparison with chemically modified peptides (on a molar basis). The peptides of Example 10 (i.e. peptides chemically modified with protecting groups and peptides having protecting groups as well as the modification wherein an L-amino acid has been replaced with the D-isomer) were compared with the non-peptide mimetics DL-N-Acetylhomocysteinethiolactone, Thiobutyrolactone, and Mercaptopropionic acid, in order to investigate the structure activity relationship for invasion inhibition by interaction with the PHSRN-binding pocket of the α5β1 fibronectin receptor (Figure 7)"}, "[2]": {"tested_on": "normal human prostate epithelial cells", "assay": "SU-ECM invasion assay, normal prostate epithelial cells", "assay_type": "cell-based", "conditions": "SU-ECM, serum containing environment; Figure 12", "procedure": "as §1, §2, §3\nas §4, with “Thus, an invasion frequency of 1 denotes invasion by 100% of the cells in contact with basement membranes.” left out, “calculated. […]” for “calculated.”"}, "[3]": {"tested_on": "Normal neonatal keratinocytes", "assay": "SU-ECM invasion assay, keratinocytes", "assay_type": "cell-based", "conditions": "in the presence of serum, Figure 11", "from_the_text": "(§5) In one example cells for the invasion assay are harvested by rinsing in Hanks' balanced salt solution, followed by brief treatment with 0.25% trypsin, 0.02% EDTA, and pelleting and resuspension in the appropriate medium with or without 5% FCS at a density of about 50,000 cells per ml. When appropriate, purified bovine plasma fibronectin (from Sigma, St. Louis, Mo), purified 120 kDa chymotryptic fragment (Gibco BRL) or PHSRN peptides (synthesized at the Biomedical Research Core Facilities of the University of Michigan) are added to the resuspended cells prior to placement of the cells on SU-ECM. […]\n(§6) Invasion assays are coded and scored blindly by microscopic examination under phase contrast at 200- and 400-fold magnification. Each cell contacting an SU-ECM is scored for its position relative to the exterior or interior surfaces. […] The minimum viability of the cells in each assay is always ascertained at the time of assay by determining the fraction of spread, adherent cells on the bottom of each well scored.\n(§7) An invasion frequency is defined as the fraction of cells in contact with basement membranes which are located in their interiors at the time of assay. […] Invasion frequencies are determined multiple times for each cell type assayed. For each type of cell assayed the mean and standard deviation of the invasion frequencies were calculated. […]"}, "[4]": {"tested_on": "Mouse muscle satellite cells", "assay": "SU-ECM invasion assay, muscle satellite cells", "assay_type": "cell-based", "conditions": "1 microgram per ml, presence or absence of serum; Figure 13", "from_the_text": "as §5, §6, §7"}}, "note": "No end group written: not given here."}
{"substance": "PHSRN [PHSRN]", "values": [{"measurement": "induction of DU-145 cell invasion of SU-ECM", "setting": "[1]", "value": "induced to invade"}, {"measurement": "induction of invasive behavior of human prostate epithelial cells", "setting": "[2]", "value": "induces the invasive behaviors"}, {"measurement": "maximal invasion percentages for keratinocytes", "setting": "[3]", "value": "about 20%"}, {"measurement": "induction of SU-ECM invasion by muscle satellite cells", "setting": "[4]", "value": "induced the invasion"}]}
